Results: US20020137929A1, “1 - (3-heterocyclylphenyl) isothiourea, -isourea, -guanidine and -amidine herbicidal agents” (Intellectual Property Department, BASF Aktiengesellschaft, priority 1998, published 2002)

Tests used:
CYPSE (Flatsedge) [1] = assay: Postemergence weed control under flooded paddy conditions; type: in vivo, Cyperus serotinus; details: postemergence weeds
Description: Results of herbicide evaluation are expressed on a rating scale (0-9). The scale is based upon a visual observation of plant stand, vigor, malformation, size, chlorosis and overall plant appearance as compared with a control.
Plastic containers containing weeds which are 3 to 5 cm tall and rice seedlings at the 1.5 to 2.5 leaf stage are flooded with water. The water is maintained at 1.5 to 3 cm above the soil surface for the duration of the experiment. Test compounds are applied as aqueous/ acetone mixtures 50/50 v/v directly into the flood water to provide the equivalent of about 0.0313 to 0.500 kg/ha of active ingredient. The treated containers are placed on greenhouse benches and cared for in accordance with conventional greenhouse procedures. Three to four weeks after treatment, the test is terminated and each container is examined and herbicidal effect rated according to the rating system provided in Example 37. The compounds evaluated are reported by compound number given in Example 37.

[2] = test system: CHEAL (Lambsquarters, Common); assay: Postemergence herbicidal evaluation; type: in vivo, Chenopodium album; details: for Herbicidal rating CHEAL: postemergence
How it was run: (§1)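 Visual 0–9 rating versus control (stand, vigor, malformation, size, chlorosis, overall appearance), taken four to five weeks post-spray. Two-week-old seedlings received roughly 0.0156–0.500 kg/ha active in acetone/water (50/50) with 0.5% TWEEN 20 via nozzle at 40 psi.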

[3] = test system: GLXMAW (Soybean, Williams); assay: Postemergence herbicidal evaluation; type: in vivo, Glycine max, (L.) Merr. cv Williams; details: for Herbicidal rating GLXMAW: postemergence
How it was run: as §1

ECHCG (Barnyardgrass) = assay: Postemergence herbicidal evaluation; type: in vivo, Echinochloa crus-galli; details: for Herbicidal rating ECHCG: postemergence
How it was run: as §1

AMBEL (Ragweed, Common) = assay: Postemergence herbicidal evaluation; type: in vivo, Ambrosia artemisifolia; details: for Herbicidal rating AMBEL: postemergence
How it was run: as §1

CYPSE (Flatsedge) [4] = assay: Preemergence weed control under flooded paddy conditions; type: in vivo, Cyperus serotinus; details: rated 3-4 weeks after treatment
How it was run: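 Using flooded silt loam (water 1.5 to 3 cm deep), seeds sown in the top 0.5 cm were exposed preemergence to compound pipetted into the flood at about 0.0313 to 0.500 kg/ha. Effects were scored 0-9 by eye three to four weeks later.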

ZEAMX (Corn, Field) = assay: Postemergence herbicidal evaluation; type: in vivo, Zea mays; details: for Herbicidal rating ZEAMX: postemergence
How it was run: as §1

CYPIR (Rice Flatsedge) = assay: Postemergence weed control under flooded paddy conditions; type: in vivo, Cyperus iria; details: postemergence weeds
How it was run: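 Containers holding 3–5 cm weeds and rice at 1.5–2.5 leaves are flooded to 1.5–3 cm above soil. Compound in 50/50 v/v aqueous/acetone is then added directly to the water, about 0.0313–0.500 kg/ha. Plants are kept in the greenhouse and rated 0–9 visually at 3–4 weeks.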

ABUTH (Velvetleaf) = assay: Postemergence herbicidal evaluation; type: in vivo, Abutilon theophrasti; details: for Herbicidal rating ABUTH: postemergence
How it was run: as §1

ORYSAT (Rice, Tebonnet) = assay: Postemergence herbicidal evaluation; type: in vivo, Oryza sativa, (L.) Tebonnet; details: for Herbicidal rating ORYSAT: postemergence
How it was run: as §1

[5] = Rate 0.0313 kg/ha, rated 3 to 4 weeks after treatment
[6] = Rate 0.0625 kg/ha, rated 3 to 4 weeks after treatment
[7] = Rate 0.1250 kg/ha, rated 3 to 4 weeks after treatment
[8] = Rate 0.2500 kg/ha, rated 3 to 4 weeks after treatment
[9] = Rate 0.5000 kg/ha, rated 3 to 4 weeks after treatment
[10] = rate 0.0313 kg/ha, 3-4 weeks after treatment
[11] = rate 0.0625 kg/ha, 3-4 weeks after treatment
[12] = rate 0.1250 kg/ha, 3-4 weeks after treatment
[13] = rate 0.2500 kg/ha, 3-4 weeks after treatment

C=CCN1C(=O)C(CC(=O)NS(=O)(=O)c2ccccc2)SC1=Nc1cc(-n2c(=O)cc(C(F)(F)F)n(C)c2=O)c(F)cc1Cl (stereo not drawn) [Compound 101, 3-Allyl-2-{{2-chloro-5-[3,6-dihydro-3-methyl-2,6-dioxo-4-(trifluoromethyl)-1(2H)-pyrimidinyl]-4-fluorophenyl}imino}-4-oxo-N-(phenylsulfonyl)-5-thiazolidineacetamide]
9.0: Herbicidal rating AMBEL (AMBEL (Ragweed, Common); rate 0.0156 kg/ha) | Herbicidal rating AMBEL (AMBEL (Ragweed, Common); rate 0.0625 kg/ha) | Herbicidal rating AMBEL (AMBEL (Ragweed, Common); rate 0.1250 kg/ha) | Herbicidal rating ABUTH (ABUTH (Velvetleaf); rate 0.0625 kg/ha) | Herbicidal rating ABUTH (ABUTH (Velvetleaf); rate 0.1250 kg/ha)
4.5: Herbicidal rating ZEAMX (ZEAMX (Corn, Field); rate 0.0156 kg/ha) | Herbicidal rating ZEAMX (ZEAMX (Corn, Field); rate 0.0313 kg/ha)
6.0: Herbicidal rating GLXMAW ([3]; rate 0.0625 kg/ha)
5.0: Herbicidal rating ECHCG (ECHCG (Barnyardgrass); rate 0.1250 kg/ha) | Herbicidal rating ZEAMX (ZEAMX (Corn, Field); rate 0.0625 kg/ha) | Herbicidal rating ZEAMX (ZEAMX (Corn, Field); rate 0.1250 kg/ha)
2.5: Herbicidal rating ORYSAT (ORYSAT (Rice, Tebonnet); rate 0.0156 kg/ha)
6.5: Herbicidal rating GLXMAW ([3]; rate 0.1250 kg/ha)
1.0: Herbicidal rating ECHCG (ECHCG (Barnyardgrass); rate 0.0156 kg/ha)
0.0: Herbicidal rating CYPSE (CYPSE (Flatsedge) [1]; [5]) | Herbicidal rating CYPSE (CYPSE (Flatsedge) [1]; [6]) | Herbicidal rating CYPSE (CYPSE (Flatsedge) [1]; [7]) | Herbicidal rating CYPSE (CYPSE (Flatsedge) [1]; [8]) | Herbicidal rating CYPSE (CYPSE (Flatsedge) [1]; [9]) | CYPSE herbicidal effect rating (CYPSE (Flatsedge) [4]; 0.0313 kg/ha) | CYPSE herbicidal effect rating (CYPSE (Flatsedge) [4]; 0.0625 kg/ha) | CYPSE herbicidal effect rating (CYPSE (Flatsedge) [4]; 0.1250 kg/ha) | CYPSE herbicidal effect rating (CYPSE (Flatsedge) [4]; 0.2500 kg/ha) | CYPSE herbicidal effect rating (CYPSE (Flatsedge) [4]; 0.5000 kg/ha) | Herbicidal rating CYPIR (CYPIR (Rice Flatsedge); [5]) | Herbicidal rating CYPIR (CYPIR (Rice Flatsedge); [6]) | Herbicidal rating CYPIR (CYPIR (Rice Flatsedge); [7])
2.0: Herbicidal rating ECHCG (ECHCG (Barnyardgrass); rate 0.0313 kg/ha)
5.5: Herbicidal rating GLXMAW ([3]; rate 0.0156 kg/ha) | Herbicidal rating GLXMAW ([3]; rate 0.0313 kg/ha)
4.0: Herbicidal rating CHEAL ([2]; rate 0.0156 kg/ha) | Herbicidal rating CHEAL ([2]; rate 0.0313 kg/ha) | Herbicidal rating CHEAL ([2]; rate 0.0625 kg/ha) | Herbicidal rating CYPIR (CYPIR (Rice Flatsedge); [9]) | Herbicidal rating ORYSAT (ORYSAT (Rice, Tebonnet); rate 0.0625 kg/ha) | Herbicidal rating ORYSAT (ORYSAT (Rice, Tebonnet); rate 0.1250 kg/ha)
3.0: Herbicidal rating ECHCG (ECHCG (Barnyardgrass); rate 0.0625 kg/ha) | Herbicidal rating CYPIR (CYPIR (Rice Flatsedge); [8]) | Herbicidal rating ABUTH (ABUTH (Velvetleaf); rate 0.0156 kg/ha) | Herbicidal rating ORYSAT (ORYSAT (Rice, Tebonnet); rate 0.0313 kg/ha)
7.0: Herbicidal rating CHEAL ([2]; rate 0.1250 kg/ha) | Herbicidal rating AMBEL (AMBEL (Ragweed, Common); rate 0.0313 kg/ha) | Herbicidal rating ABUTH (ABUTH (Velvetleaf); rate 0.0313 kg/ha)

CCOC(=O)CN1C(=O)C(CC(=O)OC(C)C)SC1=Nc1cc(-n2c(=O)cc(C(F)(F)F)n(C)c2=O)c(F)cc1Cl (stereo not drawn) [Compound 55, 2-{{2-Chloro-5-[3,6-dihydro-3-methyl-2,6-dioxo-4-(trifluoromethyl)-1(2H)-pyrimidinyl]-4-fluoro-phenyl}imino}-4-oxo-3,5-thiazolidinediacetic acid, 3-ethyl isopropyl ester]
2.5: Postemergence herbicidal rating ORYSAT (ORYSAT (Rice, Tebonnet); Rate 0.0158 kg/ha)
8.7: Postemergence herbicidal rating ZEAMX (ZEAMX (Corn, Field); Rate 0.0625 kg/ha)
8.0: Postemergence herbicidal rating GLXMAW ([3]; Rate 0.0158 kg/ha) | Postemergence herbicidal rating GLXMAW ([3]; Rate 0.0625 kg/ha) | Postemergence herbicidal rating GLXMAW ([3]; Rate 0.2500 kg/ha) | Postemergence herbicidal rating ABUTH (ABUTH (Velvetleaf); Rate 0.0158 kg/ha)
8.2: Postemergence herbicidal rating GLXMAW ([3]; Rate 0.0313 kg/ha)
4.2: Postemergence herbicidal rating ORYSAT (ORYSAT (Rice, Tebonnet); Rate 0.0625 kg/ha)
9.0: Postemergence herbicidal rating CHEAL ([2]; Rate 0.0158 kg/ha) | Postemergence herbicidal rating CHEAL ([2]; Rate 0.0313 kg/ha) | Postemergence herbicidal rating CHEAL ([2]; Rate 0.0625 kg/ha) | Postemergence herbicidal rating CHEAL ([2]; Rate 0.1250 kg/ha) | Postemergence herbicidal rating CHEAL ([2]; Rate 0.2500 kg/ha) | Postemergence herbicidal rating ECHCG (ECHCG (Barnyardgrass); Rate 0.0158 kg/ha) | Postemergence herbicidal rating ECHCG (ECHCG (Barnyardgrass); Rate 0.0313 kg/ha) | Postemergence herbicidal rating ECHCG (ECHCG (Barnyardgrass); Rate 0.0625 kg/ha) | Postemergence herbicidal rating ECHCG (ECHCG (Barnyardgrass); Rate 0.1250 kg/ha) | Postemergence herbicidal rating ECHCG (ECHCG (Barnyardgrass); Rate 0.2500 kg/ha) | Postemergence herbicidal rating AMBEL (AMBEL (Ragweed, Common); Rate 0.0158 kg/ha) | Postemergence herbicidal rating AMBEL (AMBEL (Ragweed, Common); Rate 0.0313 kg/ha) | Postemergence herbicidal rating AMBEL (AMBEL (Ragweed, Common); Rate 0.0625 kg/ha) | Postemergence herbicidal rating AMBEL (AMBEL (Ragweed, Common); Rate 0.1250 kg/ha) | Postemergence herbicidal rating AMBEL (AMBEL (Ragweed, Common); Rate 0.2500 kg/ha) | Postemergence herbicidal rating ZEAMX (ZEAMX (Corn, Field); Rate 0.2500 kg/ha) | Herbicidal rating CYPIR (CYPIR (Rice Flatsedge); [10]) | Herbicidal rating CYPIR (CYPIR (Rice Flatsedge); [11]) | Herbicidal rating CYPIR (CYPIR (Rice Flatsedge); [12]) | Herbicidal rating CYPIR (CYPIR (Rice Flatsedge); [13]) | Postemergence herbicidal rating ABUTH (ABUTH (Velvetleaf); Rate 0.0313 kg/ha) | Postemergence herbicidal rating ABUTH (ABUTH (Velvetleaf); Rate 0.0625 kg/ha) | Postemergence herbicidal rating ABUTH (ABUTH (Velvetleaf); Rate 0.1250 kg/ha) | Postemergence herbicidal rating ABUTH (ABUTH (Velvetleaf); Rate 0.2500 kg/ha)
5.5: Postemergence herbicidal rating ORYSAT (ORYSAT (Rice, Tebonnet); Rate 0.1250 kg/ha)
7.5: Postemergence herbicidal rating ZEAMX (ZEAMX (Corn, Field); Rate 0.0158 kg/ha)
6.5: Postemergence herbicidal rating ORYSAT (ORYSAT (Rice, Tebonnet); Rate 0.2500 kg/ha)
8.3: Postemergence herbicidal rating GLXMAW ([3]; Rate 0.1250 kg/ha) | Postemergence herbicidal rating ZEAMX (ZEAMX (Corn, Field); Rate 0.0313 kg/ha)
8.8: Postemergence herbicidal rating ZEAMX (ZEAMX (Corn, Field); Rate 0.1250 kg/ha)
3.5: Postemergence herbicidal rating ORYSAT (ORYSAT (Rice, Tebonnet); Rate 0.0313 kg/ha)
0.0: Herbicidal rating CYPSE (CYPSE (Flatsedge) [1]; [10]) | Herbicidal rating CYPSE (CYPSE (Flatsedge) [1]; [11]) | Herbicidal rating CYPSE (CYPSE (Flatsedge) [1]; [12]) | Herbicidal rating CYPSE (CYPSE (Flatsedge) [1]; [13]) | Herbicidal rating CYPSE (CYPSE (Flatsedge) [4]; 0.0313 kg/ha) | Herbicidal rating CYPSE (CYPSE (Flatsedge) [4]; 0.0625 kg/ha) | Herbicidal rating CYPSE (CYPSE (Flatsedge) [4]; 0.1250 kg/ha) | Herbicidal rating CYPSE (CYPSE (Flatsedge) [4]; 0.2500 kg/ha)
